Measurements taken from the supplement of paper PMC11208160.

Test: recombinant barcode read abundance after kanamycin selection (control-corrected) (log10(CPM+1)); higher = more efficient recombination; sequences stand for … in AGTGCAGAGAAAATCGGCCAGTTTTCTCTGCCTGCAGTCCGCATGCCGT…AGATTTATGCAGCGGACTGCCTTTCTCCCAAAGTGATAAACCGGACAGTATCATGGACCGGTTTTCCCGGTAATCCGTATTTGCAAGGTTGGTTTCACT; site = the 11-nt target
Outline: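 A vector carrying a T7-inducible recombinase and the last 73 bp of the bridge RNA received, by Gibson cloning, oligos encoding a promoter, target, barcode and the first 104 bridge RNA bases under J23119. The pooled constructs entered E. coli together with a donor plasmid by electroporation. Selection used chloramphenicol/ampicillin/kanamycin with 0.1 mM IPTG, with chloramphenicol/ampicillin LB agar as the control, each in two replicates. Recombination efficiency is the averaged, control-corrected counts-per-million of barcodes at recombinant junctions, reported as log10(CPM+1).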
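Further: IS621 recombinase and bridge RNA in Escherichia coli cells.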

Sequence | recombinant barcode read abundance (log10)
CTAGACCCTTGGGTTCTAACCTGTTGCGG (site ACGCGTTCTAT) | 0.25
ACTAGTCCTTGGGTTCTAACCTGTTGCGT (site ACTAGTCCTAG) | 0.133
GAGCGAGCTTGGGTTCTAACCTGTTGCAG (site GAGCGAGCTCC) | 0.322
CTAATAGCTTGGGTTCTAACCTGTTGCCT (site CTAATAGCTAG) | 0.901
CGGAACACTTGGGTTCTAACCTGTTGCGG (site CGGCACACTCC) | 0.755
GAGGTATCTTGGGTTCTAACCTGTTGCCA (site GAGGTATCTTG) | 1.12
AACGTACCTTGGGTTCTAACCTGTTGCAG (site GTGAAGACTAA) | 0.0773
CTGAGTACTTGGGTTCTAACCTGTTGCCT (site CTGAGTACTAG) | 1.08
TCCGGTACTTGGGTTCTAACCTGTTGCTT (site TCCAGTACTAA) | 0.0783
AAACTAACTTGGGTTCTAACCTGTTGCCT (site AGACTAACTAG) | 0.0602
GAAGTCTCTTGGGTTCTAACCTGTTGCCT (site GTAGTCCCTAG) | 0.0661
CGTCTGCCTTGGGTTCTAACCTGTTGCCT (site CGTCTGCCTAG) | 0.0327
CTTCGAGCTTGGGTTCTAACCTGTTGCAG (site CTTCGAGCTCG) | 0.168
GTGCAAACTTGGGTTCTAACCTGTTGCCT (site GTGCAAACTAG) | 1.23
TTGTCTCCTTGGGTTCTAACCTGTTGCCT (site ATGTCTCCTAG) | 0.0689
CGGCATACTTGGGTTCTAACCTGTTGCCT (site CCGCATACTAG) | 0.0245
GTAAATCCTTGGGTTCTAACCTGTTGCCT (site ATAAATCCTAG) | 0.141
GACTTACCTTGGGTTCTAACCTGTTGCAT (site GACTTGCCTAT) | 0.135
ATACGTTCTTGGGTTCTAACCTGTTGCAT (site CAGGTCCCTCG) | 0.354
GGGCCTACTTGGGTTCTAACCTGTTGCTG (site GGGCCTACTAA) | 0.165
TCGAAGCCTTGGGTTCTAACCTGTTGCCT (site TCGAAGCCTAG) | 0.324
AGCCCTCCTTGGGTTCTAACCTGTTGCTT (site AGCCCTCCTAA) | 0.518

Sequence | recombinant barcode read abundance (log10)
AACTTCACTTGGGTTCTAACCTGTTGCCT (site AACTTCTCTAG) | 0.0193
CGCTAGACTTGGGTTCTAACCTGTTGCCT (site CGCTAGACTAG) | 0.13
GCGCCCTCTTGGGTTCTAACCTGTTGCCT (site GCGCCCTCTAG) | 0.7
CCTCAGTCTTGGGTTCTAACCTGTTGCGA (site CCTCACTCTCC) | 0.0773
TAGCGGCCTTGGGTTCTAACCTGTTGCCT (site TACCGGCCTAG) | 0.0223
GCGGGTCCTTGGGTTCTAACCTGTTGCGT (site GCTGCTCCTAC) | 0.0517
TGTGTCCCTTGGGTTCTAACCTGTTGCCG (site TGTCTCCCTCG) | 0.0681
AAGTCCTCTTGGGTTCTAACCTGTTGCTG (site AAGTCCTCTCA) | 1.43
CAAACACCTTGGGTTCTAACCTGTTGCTT (site CAATCACCTAA) | 0.426
GCTGGTCCTTGGGTTCTAACCTGTTGCCT (site GCGGGTCCTAG) | 0.205
GACACACCTTGGGTTCTAACCTGTTGCAT (site GTCACGCCTAT) | 0.0207
AGGTCACCTTGGGTTCTAACCTGTTGCCT (site AGGTCACCTAG) | 1.83
TCGAGAGCTTGGGTTCTAACCTGTTGCCG (site TCGAGAGCTTA) | 0.203
AGCTTGCCTTGGGTTCTAACCTGTTGCAG (site AGCTTGCCTCT) | 0.717
CTGAAGCCTTGGGTTCTAACCTGTTGCCT (site ATGAAGCCTAG) | 0.0394
GTTAGACCTTGGGTTCTAACCTGTTGCCT (site TGCCTCTCTTA) | 0.0193
TCCTGTACTTGGGTTCTAACCTGTTGCCT (site TCCTGTCCTAT) | 0.108
TTACCTACTTGGGTTCTAACCTGTTGCCT (site TTACCCACTAG) | 0.0698
TTACAATCTTGGGTTCTAACCTGTTGCCT (site CTACAATCTAG) | 0.337
CACCAATCTTGGGTTCTAACCTGTTGCCT (site CACGCATCTAG) | 0.269
CCAGGAGCTTGGGTTCTAACCTGTTGCCT (site CCAGTAGCTAG) | 0.109
